How the values were obtained:
Wild Type HIV-RT = Wild Type HIV-RT (Human immunodeficiency virus type 1 group M subtype B, UniProt P03366); assay: HIV Reverse Transcriptase Assay: Inhibitor IC50 Determination; format: biochemical; conditions: purified recombinant HIV-1 RT, poly(rA)/oligo(dT)16 template-primer, 37° C. for 30 min
Experimental: HIV Reverse Transcriptase Assay: Inhibitor IC50 Determination
HIV-1 RT assay was carried out in 96-well Millipore MultiScreen MADVNOB50 plates using purified recombinant enzyme and a poly(rA)/oligo(dT)16 template-primer in a total volume of 50 μL. The assay constituents were 50 mM Tris/HCl, 50 mM NaCl, 1 mM EDTA, 6 mM MgCl2, 5 μM dTTP, 0.15 μCi [^3H] dTTP, 5 μg/ml poly (rA) pre annealed to 2.5 μg/ml oligo (dT)16 and a range of inhibitor concentrations in a final concentration of 10% DMSO. Reactions were initiated by adding 4 nM HIV-1 RT and after incubation at 37° C. for 30 min, they were stopped by the addition of 50 μl ice cold 20% TCA and allowed to precipitate at 4° C. for 30 min. The precipitates were collected by applying vacuum to the plate and sequentially washing with 3×200 μl of 10% TCA and 2×200 μl 70% ethanol. Finally, the plates were dried and radioactivity counted in a Packard TopCounter after the addition of 25 μl scintillation fluid per well. IC50's were calculated by plotting % inhibition versus log10 inhibitor concentrations. (TABLE 2)

Structure (SMILES) | IC50 (Wild Type HIV-RT) | melting point
COc1ccc(Cc2n[nH]c(=O)n2C)c(F)c1Oc1cc(Cl)cc(C#N)c1 [Compound I-1, 3-chloro-5-[2-fluoro-6-methoxy-3-(4-methyl-5-oxo-4,5-dihydro-1H-[1,2,4]triazol-3-ylmethyl)-phenoxy]-benzonitrile] | 45.6 nM | 219.1 to 220.1 °C
COc1ccc(Cc2n[nH]c(=O)n2C)c(F)c1Oc1cc(C#N)cc(C(F)F)c1 [Compound I-2, 3-Difluoromethyl-5-[2-fluoro-6-methoxy-3-(4-methyl-5-oxo-4,5-dihydro-1H-[1,2,4]triazol-3-ylmethyl)-phenoxy]-benzonitrile] | 12.9 nM | –
